# Laboratory results as given in PMC11353420, “Anti-Inflammatory, Cytotoxic, and Genotoxic Effects of Soybean Oligopeptides Conjugated with Mannose” (Foods, 2024).
# Key:
# [1] = tested on: Salmonella typhimurium strain TA100; assay: Salmonella mutation assay (Ames test), TA100; type: cell-based
# Method: (§1) Overnight bacterial cultures were mixed with various doses of test compounds with (+S9) or without (−S9) and incubated at 37 °C for 20 min. The top agar was added and then poured onto a plate of minimal glucose agar. The plates were incubated at 37 °C for 48 h. The number of revertant colonies was counted and the mutagenic index (MI) was calculated. 2-aminoanthracene (2-AA) and 2-(2-furyl)-3-(5-nitro-2-furyl)-acrylamide (AF-2) were used as positive mutagens in the presence and absence of S9.
# [2] = Hemolysis assay; type: cell-based, human; conditions: human, 5% red blood cell suspension; 800 µg/mL, 5% RBCs, 37 °C, 3 h; read-out: % Hemolysis (n = 5)
# From the text: As described by Karinchai et al., human peripheral blood mononuclear cells (PBMCs) and red blood cells (RBCs) were isolated from human blood samples [41]. Human blood samples of healthy subjects obtained from Maharaj Hospital, Chiang Mai, Thailand, were anonymized and kept in a heparinized tube by the laboratory. RBCs were collected and used to determined hemolysis induction by a hemolysis assay. Ficoll-Hypaque solution was used to isolate PBMCs, as described in the manufacturer’s instructions. A certificate of exemption by the Research Ethics Committee of the Faculty of Medicine, Chiang Mai University (No. EXEMPTION 8989/2022), was granted. Consent to participate was not applicable as all data were anonymized. All methods were carried out in accordance with relevant guidelines and regulations.
# The hemolytic effect of the oligopeptide and its conjugated forms was determined by hemolysis assay. Briefly, the 5% RBCs suspension was mixed with various concentrations of the samples and further incubated at 37 °C for 3 h. The hemolysis induction by the compounds was measured as described previously. The hemolytic effect of each compound was interpreted using the following guidelines: 0–10% hemolysis is non-hemolysis, 10–25% hemolysis is slight hemolysis induction, and >25% hemolysis is high hemolysis induction.
# [3] = tested on: COX-2; assay: COX-2 protein level by immunoblotting in LPS-treated RAW 264.7; type: cell-based, murine; conditions: 100, 200, 400 µg/mL, LPS 1 µg/mL 24 h
# Method: RAW 264.7 macrophage cells were pretreated with various concentrations of the oligopeptide and its conjugated forms (100, 200, 400 µg/mL) for an hour and then incubated with LPS (1 µg/mL) for a further 24 h (at 37 °C in a 5% CO2 humidified atmosphere). The cells were then collected to investigate the iNOS and COX-2 protein levels. Cell lysate was prepared to obtain the protein samples. The samples were subjected to 10% sodium dodecyl sulfate polyacrylamide gel electrophoresis (SDS-PAGE). The separated proteins were electrically transferred to a nitrocellulose membrane. The target proteins were probed with specific antibodies, including anti-COX-2 antibody (Cell signaling, Danvers, MA, USA), anti-iNOS antibody (Merck, Rahway, NJ, USA), and anti-β-actin antibody (Sigma, St. Louis, MO, USA). Protein detection was performed using a chemiluminescence reagent (Bio-Rad Laboratories, Watford, UK).
# [4] = tested on: Salmonella typhimurium strain TA98; assay: Salmonella mutation assay (Ames test), TA98; type: cell-based
# Method: as §1
# [5] = tested on: NO production in LPS-treated RAW 264.7 macrophages; assay: LPS-induced nitric oxide (NO)/nitrite production, Griess reaction; type: cell-based, murine; conditions: 100, 200, 400 µg/mL pretreatment 1 h, LPS 1 µg/mL 24 h
# Method: To screen the anti-inflammation ability of the compounds, the nitrite level in the cultured medium of the treated cells was determined by the Griess reaction. RAW 264.7 macrophage cells were pretreated with various concentrations of the oligopeptide and its conjugated forms (100, 200, 400 µg/mL) for an hour and then incubated with LPS (1 µg/mL) for further 24 h at 37 °C in a 5% CO2 humidified atmosphere. The culture supernatant was collected for the Griess reagent assay as previous described. The NO production was calculated by comparison with LPS-treated controls.
# [6] = SRB cytotoxicity assay, 3T3-L1 pre-adipocyte; type: cell-based, murine; conditions: mouse, 3T3-L1 pre-adipocytes; 3T3-L1 Pre-adipocyte, 48 h, SRB
# From the text: (§2) HEK293 (Human embryonic kidney cell line), HepG2 (Human liver carcinoma cell line), LX-2 (Human hepatic stellate cell line), and 3T3-L1 (Murine preadipocyte cell line) cells were obtained from the American Type Culture Collection (ATCC), Bethesda, MD, USA.
# [7] = tested on: 3T3-L1 Pre-adipocyte; assay: SRB cytotoxicity assay, 3T3-L1 pre-adipocyte; type: cell-based, murine; conditions: 48 h
# From the text: as §2
# [8] = tested on: RAW 264.7 murine macrophage cell line; assay: SRB cytotoxicity assay, RAW 264.7; conditions: Mus musculus, RAW264.7, 48 h
# Method: (§3) The cells were maintained in a 5% CO2 humidified atmosphere (CO2 incubator, Thermo Scientific, Waltham, MA, USA) at 37 °C and sub-cultured every 3 days.
# (§4) The cytotoxicity of the oligopeptide and its conjugated forms on HepG2, HEK293, LX-2, and RAW 264.7 cells, pre- and mature 3T3-L1 adipocytes, and hPBMCs was analyzed by a sulforhodamine (SRB) assay to obtain their non-toxic concentration for further experiments and as screening data for their in vitro safety. The cells were plated for 12 h in 96-well plates and then treated with the oligopeptide and its conjugated sugar at a concentration of 0–1000 µg/mL for 48 h. Dimethyl sulfoxide (DMSO) was used as a vehicle control (the untreated control). At the indicated time, the cells were then fixed and subjected to an SRB assay. The absorbance was measured at 510 nm by spectrophotometry (Gen5, BioTek, Winooski, VT, USA), and the cell viability was calculated as the ratio of the treatment versus untreated control. The data are represented as the mean ± standard deviation of three replicates and are expressed relative to the untreated control. The percentage of cell survival was calculated as follows:% cell survival = (Abs_extract/Abs_control) × 100
# [9] = SRB cytotoxicity assay, RAW 264.7; conditions: mouse
# Method: as §3, §4
# [10] = SRB cytotoxicity assay, HepG2; type: cell-based, human; conditions: human, HepG2 cells; HepG2, 48 h, SRB
# From the text: as §2
# [11] = tested on: HepG2 (Human liver carcinoma cell line); assay: SRB cytotoxicity assay, HepG2; type: cell-based
# From the text: as §2
smiles,measurement,setting,value
"OC[C@H]1OC(O)[C@@H](O)[C@@H](O)[C@@H]1O (stereo partly drawn) [Man, D-mannose]",His^+ Revertant Colonies per Plate,"[1]; TA100, +S9, 0.04 mg per plate",127.5 ± 2.5
same,His^+ Revertant Colonies per Plate,"[1]; TA100, +S9, 0.2 mg per plate",140.3 ± 2.3
same,His^+ Revertant Colonies per Plate,"[1]; TA100, +S9, 1 mg per plate",139.0 ± 0.7
same,His^+ Revertant Colonies per Plate,"[1]; TA100, +S9, 5 mg per plate",138.5 ± 4.2
same,mutagenicity,"[1]; TA100, presence and absence of the S9 mix",did not cause any mutagenicity
same,His^+ Revertant Colonies per Plate,"[1]; TA100, −S9, 0.04 mg per plate",135.2 ± 5.2
same,His^+ Revertant Colonies per Plate,"[1]; TA100, −S9, 0.2 mg per plate",137.5 ± 4.5
same,His^+ Revertant Colonies per Plate,"[1]; TA100, −S9, 1 mg per plate",135.2 ± 4.5
same,His^+ Revertant Colonies per Plate,"[1]; TA100, −S9, 5 mg per plate",129.7 ± 4.7
same,"hemolysis at 3 h, 800 µg/mL",[2],1.84 ± 0.42%
same,effect on COX-2 protein level,[3],did not affect
same,His^+ Revertant Colonies per Plate,"[4]; TA98, +S9, 0.04 mg per plate",37.7 ± 5.7
same,His^+ Revertant Colonies per Plate,"[4]; TA98, +S9, 0.2 mg per plate",37.8 ± 3.8
same,His^+ Revertant Colonies per Plate,"[4]; TA98, +S9, 1 mg per plate",36.5 ± 7.5
same,His^+ Revertant Colonies per Plate,"[4]; TA98, +S9, 5 mg per plate",38.5 ± 7.8
same,mutagenicity,"[4]; TA98, presence and absence of the S9 mix",did not cause any mutagenicity
same,His^+ Revertant Colonies per Plate,"[4]; TA98, −S9, 0.04 mg per plate",30.5 ± 2.5
same,His^+ Revertant Colonies per Plate,"[4]; TA98, −S9, 0.2 mg per plate",30.8 ± 4.8
same,His^+ Revertant Colonies per Plate,"[4]; TA98, −S9, 1 mg per plate",27.8 ± 6.5
same,His^+ Revertant Colonies per Plate,"[4]; TA98, −S9, 5 mg per plate",28.7 ± 6.0
same,inhibition of LPS-induced NO production,[5],did not inhibit
same,IC20 at 48 h,[6],> 1000 µg/mL
same,IC50,"[7]; Mus musculus, 3T3-L1 Pre-adipocyte, SRB, read-out: IC50",> 1000 µg/mL
same,toxicity to cells,"[7]; pre-3T3-L1, up to 1000 µg/mL",not toxic
same,IC50,[8],> 1000 µg/mL
same,IC20 at 48 h,[9],> 1000 µg/mL
same,IC20 at 48 h,[10],> 1000 µg/mL
same,toxicity to cells,"[11]; HepG2, up to 1000 µg/mL, 48 h",not toxic
same,IC50,"[11]; Homo sapiens, HepG2, 48 h, SRB, read-out: IC50",> 1000 µg/mL
